# Test results as given in ChEMBL document CHEMBL1137841, “Peptidyl aldehydes as slow-binding inhibitors of dual-specificity phosphatases” (Bioorg Med Chem Lett, 2004).
# What was measured:
# [1] = biological target: T1, Dual specificity protein phosphatase 3 (Homo sapiens, UniProt P51452); experiment: Tested for effect on inhibition of Dual specificity protein phosphatase 3 and the value reported is overall equilibrium constant
# Target sequence in this assay (P51452 whole entry): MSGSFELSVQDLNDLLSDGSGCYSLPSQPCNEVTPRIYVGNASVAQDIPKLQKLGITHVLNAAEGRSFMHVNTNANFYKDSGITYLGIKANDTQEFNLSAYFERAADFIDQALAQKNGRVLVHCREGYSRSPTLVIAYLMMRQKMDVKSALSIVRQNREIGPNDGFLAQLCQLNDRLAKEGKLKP
# [2] = Tested for effect on inhibition of DSP VH1 (dual-specificity phosphatase vaccinia open reading frame H1) and the value reported is equilibrium constant
# [3] = Tested for effect on inhibition of DSP VH1 (dual-specificity phosphatase vaccinia open reading frame H1) and the value reported is overall equilibrium constant
# [4] = biological target: T1, Dual specificity protein phosphatase 3; experiment: Tested for effect on inhibition of Dual specificity protein phosphatase 3 at a dose of 2.5 mM
# Target sequence in this assay (P51452 whole entry, looked up): as the sequence (P51452 whole entry) above
# [5] = Tested for effect on inhibition of protein tyrosine phosphatase 1B
# [6] = Tested for effect on inhibition of DSP VH1 (dual-specificity phosphatase vaccinia open reading frame H1)
Compound,Ki [1] [µM],Ki [2] [µM],Ki [3] [µM],inhibition [4] [%],IC50 [5] [µM],IC50 [6] [µM]
NC(=O)[C@H](CCC(=O)O)NC(=O)[C@H](CCC(=O)O)NC(=O)CNC(=O)c1ccc(/C=C/C=O)cc1,290,190,18,–,–,–
O=C/C=C/c1ccc(C(=O)O)cc1,–,–,–,40,970,~1000
